# Measurements from patent US20250170126A1 (MITSUBISHI TANABE PHARMA CORPORATION, priority 2022, published 2025).
# Target: Human B0AT1 (Homo sapiens (Human), UniProt Q695T7)
# Assay: hB0AT1 inhibitory test (phenylalanine uptake)
# Format: cell-based
# Settings: Human B0AT1 stable expression CHO cells; [3H]-L-phenylalanine uptake, phenylalanine 0.25 mM
# Outline: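 CHO cells stably expressing human B0AT1, in sodium-containing HEPES buffer with 0.01% BSA, preincubated with compound (0.5% DMSO) 30 min or longer at ambient temperature. Uptake of [3H]-L-phenylalanine (0.25 mM final) read by scintillation, analysed at 100-200 min; non-specific uptake from […] N-(4-bromophenyl)-3,5-dichloro-2-hydroxybenzamide, IC50 by logistic nonlinear regression.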
# Human B0AT1, sequence (Q695T7 whole entry): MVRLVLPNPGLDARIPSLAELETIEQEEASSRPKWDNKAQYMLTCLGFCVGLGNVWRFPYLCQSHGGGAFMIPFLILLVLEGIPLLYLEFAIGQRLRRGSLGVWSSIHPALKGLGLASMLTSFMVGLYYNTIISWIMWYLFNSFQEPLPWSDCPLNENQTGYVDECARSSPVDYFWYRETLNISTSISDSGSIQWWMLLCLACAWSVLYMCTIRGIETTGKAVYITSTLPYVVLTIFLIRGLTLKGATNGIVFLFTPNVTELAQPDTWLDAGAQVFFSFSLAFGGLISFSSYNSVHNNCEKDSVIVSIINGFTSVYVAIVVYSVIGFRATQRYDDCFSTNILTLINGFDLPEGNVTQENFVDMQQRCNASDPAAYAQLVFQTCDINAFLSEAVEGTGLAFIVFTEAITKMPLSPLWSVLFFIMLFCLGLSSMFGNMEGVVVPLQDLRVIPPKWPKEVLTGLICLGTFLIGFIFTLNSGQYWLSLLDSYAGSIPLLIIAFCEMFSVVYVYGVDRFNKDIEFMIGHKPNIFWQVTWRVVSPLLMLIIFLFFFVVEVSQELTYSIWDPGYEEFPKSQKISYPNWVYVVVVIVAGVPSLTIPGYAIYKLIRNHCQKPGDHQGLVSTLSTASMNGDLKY
row,SMILES,IC50
1,CN1CCN(C(=O)CNC(=O)/C=C/c2ccc(C(F)(F)F)cc2)CC1=O [I-17],195 nM
2,CN1CCN(C(=O)CNC(=O)/C=C/c2ccc(-c3ccc(C(F)(F)F)cc3)cc2)CC1 [I-128],678 nM
3,CN1CCN(C(=O)CNC(=O)/C=C/c2ccc(C(F)(F)F)cc2)C(c2ccccc2)C1 (centres unmarked) [I-45],24 nM
4,Cn1nnc2c1CCN(C(=O)CNC(=O)/C=C/c1ccc(C(F)(F)F)cc1)C2 [I-100],79 nM
5,CC1Cn2ncnc2CN1C(=O)CNC(=O)/C=C/c1ccc(C(F)(F)F)cc1 (centres unmarked) [I-97],397 nM
6,O=C(/C=C/c1ccc(C(F)(F)F)cc1)NCC(=O)N1CCCn2nccc21 [I-86],23 nM
7,"CC(C)(O)c1cc2n(n1)CCN(C(=O)CNC(=O)/C=C/c1ccc(C(F)(F)F)cc1)C2 [I-129, (E)-N-[2-[2-(1-hydroxy-1-methylethyl)-6,7-dihydro-4H-pyrazolo [1,5-a]pyrazin-5-yl]-2-oxoethyl]-3-[4-(trifluoromethyl)phenyl]prop-2-enamide]",66 nM

# More lines, in order of falling IC50, values ahead:
row,IC50,SMILES
1,1590 nM,O=C(/C=C/c1ccc(C(F)(F)F)cc1)NCC(=O)N1CCS(=O)(=O)CC1 [I-9]
2,978 nM,CC(=O)N1CCN(C(=O)CNC(=O)/C=C/c2ccc(C(F)(F)F)cc2)CC1 [I-28]
3,200 nM,O=C(/C=C/c1ccc(C(F)(F)F)cc1)NCC(=O)N1CCc2nc(C(=O)O)ccc2C1 [I-263]
4,104 nM,CCCOc1ccc(/C=C/C(=O)NCC(=O)N2CCN(C)CC2)cc1 [I-108]
